Laboratory results: patent publication US9820977B2, “Systemic treatment of blood-sucking and blood-consuming parasites by oral administration of a parasiticidal agent” (priority 2008, dated 2017)
Values joined by “and” are separate entries in the source; they are usually repeats but may differ in a detail not shown here. Equal entries are not always repeated.

What was measured:
Ctenocephalides felis = assay: Flea infestation on dogs, oral dosing, pan and comb counts; type: in vivo; conditions: for Mean Efficacy / 1 hour pan counts / 3 hour pan counts / Comb Count Day 1 / # Live Fleas Removed / 4 hour pan counts / 6 hour pan counts / Efficacy, Comb Count Day 2 (reinfested) / Efficacy, Comb Count Day 5 (reinfested) / Comb Count Day 2 (reinfested) / Comb Count Day 5 (reinfested) / Efficacy, Comb Count Day 1 / Average 1 hour pan counts / Average 3 hour pan counts: dogs; for Mean Efficacy / Efficacy, Comb Count Day 2 (reinfested) / Efficacy, Comb Count Day 5 (reinfested) / Efficacy, Comb Count Day 1: fleas
Description: Flea Species: Ctenocephalides felis
Number: ˜100 unfed adults per dog per infestation with a sex ratio of ˜50/50
(§1) Species/Strain/Source: Dog/beagles/Stillmeadow, Inc. dog colony
(§2) Body weights were recorded during the pretest period. Six dogs were selected for study, weighed and randomly assigned to two groups of three and infested with either 100 fleas or 50 ticks. For the flea study whose results are shown in Table 3, repeat 100 flea infestations were performed on Days 2 and 5, without additional dosing. For all studies, the Group I dogs served as untreated controls. All animals except those in Group II of the study whose results are reported in Table 1 were dosed orally with the test article in gelatin capsules. The Group II, Table 1 animals received 5 mg of imidacloprid active in a chewable drug delivery vehicle.
(§3) For blood collections, drawn blood was collected into lavender top Vacutainer® tubes. The tubes were centrifuged and plasma was drawn off and frozen at approximately −20° C. pending possible future shipment to the sponsor for analysis of levels of test article in the plasma. Comb and pan counts were conducted as noted in the Tables, following dosing. The number of live fleas and ticks removed during the comb counts was recorded as were, where noted in the Tables, dead tick counts.

Rhipicephalus sanguineus = assay: Tick infestation on dogs, oral dosing, tick counts; type: in vivo; conditions: for Attached Dead Day 2 / Dead Attached Day 6 / Dead Free Day 6 / Live Attached Day 6 / Live Free Day 6 / Ticks Removed Day 2 / Mean Efficacy / Efficacy / Dead Ticks / Live Ticks / Comb Count Day 3 Dead / Comb Count Day 3 Live / Hand Count Day 2: dogs; for Mean Efficacy / Efficacy / Comb Count Day 3 Dead / Comb Count Day 3 Live / Hand Count Day 2: ticks; for Efficacy: Day 6
Description: Tick Species: Rhipicephalus sanguineus
Number: ˜50 unfed adults per dog per infestation (˜25 male and ˜25 females)
as §1, §2, §3

ticks = conditions: given topically, imidacloprid alone; cited from earlier work
[1] = given orally to control fleas; cited from earlier work
[2] = oral 0.5 mg/kg, individual animals, 0.5 mg/kg
[3] = oral 1.0 mg/kg, individual animals, 1 mg/kg
[4] = oral 3.0 mg/kg single dose, group Mean
[5] = oral 3.0 mg/kg single dose, individual animals, 3 mg/kg
[6] = oral 3.0 mg/kg, individual animals, 3 mg/kg
[7] = oral 6.0 mg/kg single dose, group Mean
[8] = oral 6.0 mg/kg, individual animals, 6 mg/kg
[9] = oral 10.0 mg/kg single dose, group Mean
[10] = oral 10.0 mg/kg, individual animals, 10 mg/kg
[11] = oral 3 mg/kg, individual animals, 3 mg/kg
[12] = oral 10 mg/kg, individual animals, 10 mg/kg
[13] = oral 15 mg/kg, Day 1, group Mean
[14] = oral 15 mg/kg, Day 1, individual animals, 15 mg/kg
[15] = oral 22 mg/kg, Day 1, group Mean
[16] = oral 22 mg/kg, Day 1, individual animals, 22 mg/kg
[17] = oral 30 mg/kg, Day 1, group Mean
[18] = oral 30 mg/kg, Day 1, individual animals, 30 mg/kg
[19] = oral 30 mg/kg, individual animals, 30 mg/kg

## O=[N+]([O-])N=C1NCCN1Cc1ccc(Cl)nc1 [Imidacloprid, 1-[(6-chloro-3-pyridinyl)methyl]-N-nitro-2-imidazolidinimine]
Ctenocephalides felis; oral 0.25 mg/kg, Day 1
  Mean Efficacy: 100.0
Ctenocephalides felis; oral 0.25 mg/kg, group Mean
  1 hour pan counts: 0.0
  3 hour pan counts: 5.5
Ctenocephalides felis; oral 0.25 mg/kg, individual animals
  1 hour pan counts: 0
Ctenocephalides felis; oral 0.25 mg/kg, individual animals, 0.25 mg/kg
  3 hour pan counts: 2 and 9
Ctenocephalides felis; oral 0.25 mg/kg, live fleas, group Mean
  Comb Count Day 1: 0.0
Ctenocephalides felis; oral 0.25 mg/kg, live fleas, individual animals
  Comb Count Day 1: 0
Ctenocephalides felis; oral 0.5 mg/kg, column after 4 hour pan counts, group Mean
  # Live Fleas Removed: 22.7
Ctenocephalides felis; oral 0.5 mg/kg, column after 4 hour pan counts, individual animals, 0.5 mg/kg
  # Live Fleas Removed: 31 and 2 and 35
Ctenocephalides felis; oral 0.5 mg/kg, column after 6 hour pan counts, group Mean
  # Live Fleas Removed: 0.0
Ctenocephalides felis; oral 0.5 mg/kg, column after 6 hour pan counts, individual animals
  # Live Fleas Removed: 0
Ctenocephalides felis; oral 0.5 mg/kg
  Mean Efficacy: 100.0
Ctenocephalides felis; oral 0.5 mg/kg, group Mean
  4 hour pan counts: 0.0
  6 hour pan counts: 39.7
Ctenocephalides felis; [2]
  4 hour pan counts: 5 and 45 and 15
  6 hour pan counts: 39 and 33 and 47
Ctenocephalides felis; oral 1.0 mg/kg, column after 4 hour pan counts, group Mean
  # Live Fleas Removed: 9.0
Ctenocephalides felis; oral 1.0 mg/kg, column after 4 hour pan counts, individual animals, 1 mg/kg
  # Live Fleas Removed: 4 and 12 and 11
Ctenocephalides felis; oral 1.0 mg/kg, column after 6 hour pan counts, group Mean
  # Live Fleas Removed: 0.0
Ctenocephalides felis; oral 1.0 mg/kg, column after 6 hour pan counts, individual animals
  # Live Fleas Removed: 0
Ctenocephalides felis; oral 1.0 mg/kg
  Mean Efficacy: 100.0
Ctenocephalides felis; oral 1.0 mg/kg, group Mean
  4 hour pan counts: 41.7
  6 hour pan counts: 44.0
Ctenocephalides felis; [3]
  4 hour pan counts: 44 and 41 and 40
  6 hour pan counts: 35 and 44 and 53
Ctenocephalides felis; oral 3.0 mg/kg single dose
  Efficacy, Comb Count Day 2 (reinfested): 68.1
  Efficacy, Comb Count Day 5 (reinfested): 42.1
Ctenocephalides felis; [4]
  Comb Count Day 2 (reinfested): 22.3
  Comb Count Day 5 (reinfested): 25.3
Ctenocephalides felis; [5]
  Comb Count Day 2 (reinfested): 15 and 40 and 12
  Comb Count Day 5 (reinfested): 32 and 80 and 42
Ctenocephalides felis; oral 3.0 mg/kg
  Efficacy, Comb Count Day 1: 100.0
Ctenocephalides felis; oral 3.0 mg/kg, group Mean
  Average 1 hour pan counts: 1.3
  Average 3 hour pan counts: 9.0
  Comb Count Day 1: 0.0
Ctenocephalides felis; oral 3.0 mg/kg, individual animals
  Comb Count Day 1: 0
Ctenocephalides felis; [6]
  Average 1 hour pan counts: 2 and 1 (2×)
  Average 3 hour pan counts: 7 and 9 and 11
Ctenocephalides felis; oral 6.0 mg/kg single dose
  Efficacy, Comb Count Day 2 (reinfested): 100.0
  Efficacy, Comb Count Day 5 (reinfested): 79.3
Ctenocephalides felis; [7]
  Comb Count Day 2 (reinfested): 0.0
  Comb Count Day 5 (reinfested): 12.1
Ctenocephalides felis; oral 6.0 mg/kg single dose, individual animals
  Comb Count Day 2 (reinfested): 0
Ctenocephalides felis; oral 6.0 mg/kg single dose, individual animals, 6 mg/kg
  Comb Count Day 5 (reinfested): 7 and 17 and 31
Ctenocephalides felis; oral 6.0 mg/kg
  Efficacy, Comb Count Day 1: 100.0
Ctenocephalides felis; oral 6.0 mg/kg, group Mean
  Average 1 hour pan counts: 7.6
  Average 3 hour pan counts: 19.6
  Comb Count Day 1: 0.0
Ctenocephalides felis; oral 6.0 mg/kg, individual animals
  Comb Count Day 1: 0
Ctenocephalides felis; [8]
  Average 1 hour pan counts: 5 and 6 and 12
  Average 3 hour pan counts: 13 and 22 and 27
Ctenocephalides felis; oral 10.0 mg/kg single dose
  Efficacy, Comb Count Day 2 (reinfested): 100.0
  Efficacy, Comb Count Day 5 (reinfested): 97.7
Ctenocephalides felis; [9]
  Comb Count Day 2 (reinfested): 0.0
  Comb Count Day 5 (reinfested): 2.0
Ctenocephalides felis; oral 10.0 mg/kg single dose, individual animals
  Comb Count Day 2 (reinfested): 0
Ctenocephalides felis; oral 10.0 mg/kg single dose, individual animals, 10 mg/kg
  Comb Count Day 5 (reinfested): 0 and 5 and 1
Ctenocephalides felis; oral 10.0 mg/kg
  Efficacy, Comb Count Day 1: 100.0
Ctenocephalides felis; oral 10.0 mg/kg, group Mean
  Average 1 hour pan counts: 11.3
  Average 3 hour pan counts: 19.0
  Comb Count Day 1: 0.0
Ctenocephalides felis; oral 10.0 mg/kg, individual animals
  Comb Count Day 1: 0
Ctenocephalides felis; [10]
  Average 1 hour pan counts: 10 and 16 and 8
  Average 3 hour pan counts: 14 and 25 and 18
Ctenocephalides felis; orally dosed at a rate as low as 0.25 mg/kg
  efficacious against pre-existing C. felis infestations: 100%
Ctenocephalides felis; single oral dose 0.25 mg/kg, within as little as an hour of administration
  effective against a flea infestation on treated animals: 100%
Rhipicephalus sanguineus; oral 3 mg/kg, group Mean
  Attached Dead Day 2: 1
  Dead Attached Day 6: 0
  Dead Free Day 6: 0.0
  Live Attached Day 6: 8
  Live Free Day 6: 0
  Ticks Removed Day 2: 18
Rhipicephalus sanguineus; oral 3 mg/kg, individual animals
  Dead Free Day 6: 0
Rhipicephalus sanguineus; [11]
  Attached Dead Day 2: 1 (2×) and 0
  Dead Attached Day 6: 2 (2×) and 0
  Live Attached Day 6: 6 and 4 and 13
  Live Free Day 6: 1 and 0 (2×)
  Ticks Removed Day 2: 17 and 8 and 28
Rhipicephalus sanguineus; oral 3 mg/kg, Day 2
  Mean Efficacy: 15.9
Rhipicephalus sanguineus; oral 3 mg/kg
  Efficacy: 61.0
Rhipicephalus sanguineus; oral 10 mg/kg, group Mean
  Attached Dead Day 2: 3
  Dead Attached Day 6: 0
  Dead Free Day 6: 0
  Live Attached Day 6: 17
  Live Free Day 6: 0
  Ticks Removed Day 2: 20
Rhipicephalus sanguineus; oral 10 mg/kg, individual animals
  Dead Free Day 6: 0
Rhipicephalus sanguineus; [12]
  Attached Dead Day 2: 2 and 0 and 6
  Dead Attached Day 6: 1 and 0 (2×)
  Live Attached Day 6: 14 and 8 and 28
  Live Free Day 6: 1 and 0 (2×)
  Ticks Removed Day 2: 16 and 22 and 23
Rhipicephalus sanguineus; oral 10 mg/kg, Day 2
  Mean Efficacy: 3.2
Rhipicephalus sanguineus; oral 10 mg/kg
  Efficacy: 15.3
Rhipicephalus sanguineus; [13]
  Dead Ticks: 1
  Live Ticks: 15
Rhipicephalus sanguineus; [14]
  Dead Ticks: 0 and 3 and 1
  Live Ticks: 33 and 2 and 10
Rhipicephalus sanguineus; oral 15 mg/kg, Day 1
  Mean Efficacy: 48.9
Rhipicephalus sanguineus; [15]
  Dead Ticks: 1
  Live Ticks: 9
Rhipicephalus sanguineus; [16]
  Dead Ticks: 2 and 1 and 0
  Live Ticks: 3 and 12 and 13
Rhipicephalus sanguineus; oral 22 mg/kg, Day 1
  Mean Efficacy: 68.2
Rhipicephalus sanguineus; [17]
  Dead Ticks: 2
  Live Ticks: 11
Rhipicephalus sanguineus; [18]
  Dead Ticks: 7 and 0 (2×)
  Live Ticks: 10 and 12 and 11
Rhipicephalus sanguineus; oral 30 mg/kg, Day 1
  Mean Efficacy: 62.5
Rhipicephalus sanguineus; oral 30 mg/kg, Day 3
  Mean Efficacy: 79.5
Rhipicephalus sanguineus; oral 30 mg/kg, group Mean
  Comb Count Day 3 Dead: 1
  Comb Count Day 3 Live: 5
  Hand Count Day 2: 9
Rhipicephalus sanguineus; [19]
  Comb Count Day 3 Dead: 0 (2×) and 2
  Comb Count Day 3 Live: 6 and 5 and 4
  Hand Count Day 2: 8 and 13 and 7
Rhipicephalus sanguineus; single oral dose 3 mg/kg, within as little as 24-48 hours of administration
  effective against a tick infestation on treated animals: at least 60%
ticks
  effect on ticks: little or no effect on ticks

## N#Cc1nn(-c2c(Cl)cc(C(F)(F)F)cc2Cl)c(N)c1[S+]([O-])C(F)(F)F (centres unmarked) [Fipronil, 5-amino-1-[2,6-dichloro-4-(trifluoromethyl)phenyl]-4-[(trifluoromethyl)sulfinyl]-1H-pyrazole-3-carbonitrile]
[1]
  emesis: known to cause emesis
